Patent US20120214822A1 (ASTRAZENECA AB, priority 2007, published 2012)

Target: human active recombinant p38α-6His tagged (Homo sapiens, UniProt Q16539)
Experiment: P38 Alpha Enzyme Assay (AlphaScreen, biotinylated-ATF2 substrate);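 note: 0.5 nM final p38α, reaction started with ATP and run 45 min at 37 °C, phospho-ATF2 read by antibody-based AlphaScreen, background wells quenched with EDTA before ATP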
Assay type: biochemical
Conditions: p38 alpha enzyme inhibition; means of replicate determinations; 4 h pre-incubation at 37° C.; SD of assay 0.2-0.3 log units

Sequence of human active recombinant p38α-6His tagged (Q16539 whole entry): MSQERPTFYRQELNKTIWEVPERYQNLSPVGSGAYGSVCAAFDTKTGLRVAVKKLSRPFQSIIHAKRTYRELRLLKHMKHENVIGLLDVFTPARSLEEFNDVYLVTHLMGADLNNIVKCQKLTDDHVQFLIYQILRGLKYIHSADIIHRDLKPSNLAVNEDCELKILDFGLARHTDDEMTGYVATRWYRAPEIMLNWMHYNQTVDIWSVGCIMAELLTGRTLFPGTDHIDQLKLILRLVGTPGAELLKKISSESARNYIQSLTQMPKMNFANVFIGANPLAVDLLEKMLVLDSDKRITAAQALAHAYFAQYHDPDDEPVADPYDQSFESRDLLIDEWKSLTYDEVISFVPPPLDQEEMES

SMILES | pIC50
Cc1c(F)cc(C(=O)NC2CC2)cc1-n1ccnc(NC(C)(C)c2ccccc2OCCNCCO)c1=O [Example 253, N-Cyclopropyl-3-fluoro-5-[3-[[1-[2-[2-[(2-hydroxyethyl)amino]ethoxy]phenyl]-1-methylethyl]amino]-2-oxo-1(2H)-pyrazinyl]-4-methyl-benzamide] | 10.2
Cc1c(F)cc(C(=O)NC2CC2)cc1-n1ccnc(NC(C)(C)c2ccccc2OCCNC(C)C)c1=O [Example 254, N-Cyclopropyl-3-fluoro-4-methyl-5-[3-[[1-methyl-1-[2-[2-[(1-methylethyl)amino]ethoxy]phenyl]ethyl]amino]-2-oxo-1(2H)-pyrazinyl]-benamide] | 10.2
COCCNCCOc1ccccc1C(C)(C)Nc1nccn(-c2cc(C(=O)NC3CC3)cc(F)c2C)c1=O [Example 255, N-Cyclopropyl-3-fluoro-5-[3-[[1-[2-[2-[(2-methoxyethyl)amino]ethoxy]phenyl]-1-methylethyl]amino]-2-oxo-1(2H)-pyrazinyl]-4-methyl-benzamide] | 10.2
Cc1c(F)cc(C(=O)NC2CC2)cc1-n1ccnc(NC(C)(C)c2ccccc2OCCNC[C@@H](C)O)c1=O [Example 256, N-Cyclopropyl-3-fluoro-5-[3-[[1-[2-[2-[[(2R)-2-hydroxypropyl]amino]ethoxy]phenyl]-1-methylethyl]amino]-2-oxo-1(2H)-pyrazinyl]-4-methyl-benzamide] | 10.5
Cc1c(F)cc(C(=O)NC2CC2)cc1-n1ccnc(NC(C)(C)c2ccccc2OCCNCC(C)(C)O)c1=O [Example 257, N-Cyclopropyl-3-fluoro-5-[3-[[1-[2-[2-[(2-hydroxy-2-methylpropyl)amino]ethoxy]phenyl]-1-methylethyl]amino]-2-oxo-1(2H)-pyrazinyl]-4-methyl-benzamide] | 10.3
Cc1c(F)cc(C(=O)NC2CC2)cc1-n1ccnc(NC(C)(C)c2ccccc2OCCNC[C@H](C)O)c1=O [Example 258, N-Cyclopropyl-3-fluoro-5-[3-[[1-[2-[2-[[(2S)-2-hydroxypropyl]amino]ethoxy]phenyl]-1-methylethyl]amino]-2-oxo-1(2H)-pyrazinyl]-4-methyl-benzamide] | 10.4
CNCCOc1ccccc1C1(Nc2nccn(-c3cc(C(=O)NC4CC4)cc(F)c3C)c2=O)CC1 [Example 259, N-Cyclopropyl-3-fluoro-4-methyl-5-[3-[[1-[2-[2-(methylamino)ethoxy]phenyl]cyclopropyl]amino]-2-oxo-1(2H)-pyrazinyl]-benzamide] | 10
Cc1c(F)cc(C(=O)NC2CC2)cc1-n1ccnc(NC2(c3ccccc3OCCNCCO)CC2)c1=O [Example 260, N-Cyclopropyl-3-fluoro-5-[3-[[1-[2-[2-[(2-hydroxyethyl)amino]ethoxy]phenyl]cyclopropyl]amino]-2-oxo-1(2H)-pyrazinyl]-4-methyl-benzamide] | 10.3
COCCNCCOc1ccccc1C1(Nc2nccn(-c3cc(C(=O)NC4CC4)cc(F)c3C)c2=O)CC1 [Example 261, N-Cyclopropyl-3-fluoro-5-[3-[[1-[2-[2-[(2-methoxyethyl)amino]ethoxy]phenyl]cyclopropyl]amino]-2-oxo-1(2H)-pyrazinyl]-4-methyl-benzamide] | 10.5
CCNCCOc1ccccc1C1(Nc2nccn(-c3cc(C(=O)NC4CC4)cc(F)c3C)c2=O)CC1 [Example 262, N-Cyclopropyl-3-[3-[[1-[2-[2-(ethylamino)ethoxy]phenyl]cyclopropyl]amino]-2-oxo-1(2H)-pyrazinyl]-5-fluoro-4-methyl-benzamide] | 10.2
Cc1c(F)cc(C(=O)NC2CC2)cc1-n1ccnc(NC2(c3ccccc3OCCNC[C@H](C)O)CC2)c1=O [Example 263, N-Cyclopropyl-3-fluoro-5-[3-[[1-[2-[2-[[(2S)-2-hydroxypropyl]amino]ethoxy]phenyl]cyclopropyl]amino]-2-oxo-1(2H)-pyrazinyl]-4-methyl-benzamide] | 10.3
